From ChEMBL document CHEMBL1123313, “Folate analogues. 25. Synthesis and biological evaluation of N10-propargylfolic acid and its reduced derivatives” (J Med Chem, 1986)
In brackets after ≈: the same amount, converted by molar mass.

What was measured:
Thymidylate synthase [1] = molecular target: T1, Thymidylate synthase (Mus musculus, UniProt P07607); experiment: Inhibitory activity against the thymidylate synthase in the Permeabilized L1210 cells; type: cell-based
Thymidylate synthase [2] = molecular target: T1, Thymidylate synthase; experiment: Inhibitory activity against thymidylate synthase in the intact L1210 cells; type: cell-based
Lacticaseibacillus casei [3] = experiment: Inhibitory activity against Lactobacillus casei ATCC 7469; type: functional, organism-based
Lacticaseibacillus casei [4] = experiment: Inhibitory activity against Lactobacillus casei MTX-resistant; type: functional, organism-based
Enterococcus faecium [5] = experiment: Inhibitory activity against Streptococcus faecium MTX-resistant; type: functional, organism-based
Enterococcus faecium [6] = experiment: Inhibitory activity against Streptococcus faecium ATCC 8043; type: functional, organism-based
Thymidylate synthase [7] = molecular target: T2, Thymidylate synthase (Lactobacillus casei, UniProt P00469); experiment: Inhibitory activity against thymidylate synthase derived from Lactobacillus casei; parameters: species or system Lacticaseibacillus casei
T2 sequence (P00469 whole entry): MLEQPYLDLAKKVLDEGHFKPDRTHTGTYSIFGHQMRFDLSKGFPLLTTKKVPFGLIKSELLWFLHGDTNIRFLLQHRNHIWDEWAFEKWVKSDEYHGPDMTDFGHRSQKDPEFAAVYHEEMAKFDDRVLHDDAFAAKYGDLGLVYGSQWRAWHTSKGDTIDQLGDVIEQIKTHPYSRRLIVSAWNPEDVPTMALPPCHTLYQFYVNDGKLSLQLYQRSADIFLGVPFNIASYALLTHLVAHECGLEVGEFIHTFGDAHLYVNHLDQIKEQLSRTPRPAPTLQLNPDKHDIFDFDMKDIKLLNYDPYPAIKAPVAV

Dihydrofolate reductase = Dihydrofolate reductase (Lactobacillus casei, UniProt P00381)
Description: Inhibitory activity against dihydrofolate reductase derived from Lactobacillus casei

[8] = Lacticaseibacillus casei, read-out: IC50

Sequence of Dihydrofolate reductase (P00381 whole entry): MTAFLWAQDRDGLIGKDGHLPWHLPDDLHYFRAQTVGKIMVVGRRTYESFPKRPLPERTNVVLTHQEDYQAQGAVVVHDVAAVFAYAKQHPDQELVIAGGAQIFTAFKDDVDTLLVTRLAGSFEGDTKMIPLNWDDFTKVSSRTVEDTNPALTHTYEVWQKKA
T1 sequence (P07607 whole entry): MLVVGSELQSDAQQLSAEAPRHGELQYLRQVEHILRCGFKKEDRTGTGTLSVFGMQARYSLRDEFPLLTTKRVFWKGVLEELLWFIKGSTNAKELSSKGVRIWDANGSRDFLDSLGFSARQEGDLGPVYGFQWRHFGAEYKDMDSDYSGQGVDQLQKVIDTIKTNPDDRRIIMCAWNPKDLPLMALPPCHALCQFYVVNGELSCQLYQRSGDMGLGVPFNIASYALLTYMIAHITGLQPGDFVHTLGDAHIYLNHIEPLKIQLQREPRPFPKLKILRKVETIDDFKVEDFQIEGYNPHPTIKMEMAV

Compound `Nc1nc2ncc(CNc3ccc(C(=O)N[C@@H](CCC(=O)O)C(=O)O)cc3)nc2c(=O)[nH]1` [FOLIC ACID] has an IC50 (Thymidylate synthase [1]) of 1800 µM and an IC50 (Thymidylate synthase [2]) of over 1000 µM.
With `CN(Cc1cnc2nc(N)nc(O)c2n1)c1ccc(C(=O)NC(CCC(=O)O)C(=O)O)cc1` (stereo not drawn) the IC50 (Thymidylate synthase [1]) was 660 µM and the IC50 (Thymidylate synthase [2]) was over 1000 µM.
In the case of `C#CCN(CC1=Nc2c(O)nc(N)nc2NC1)c1ccc(C(=O)NC(CCC(=O)O)C(=O)O)cc1` (stereo not drawn), the IC50 (Lacticaseibacillus casei [3]) is reported as 36 ng/mL (≈ 0.0748 µM), the IC50 (Lacticaseibacillus casei [4]; [8]) is reported as over 2000 ng/mL and the IC50 (Enterococcus faecium [5]) is reported as 24 ng/mL (≈ 0.0498 µM). For the same compound, the IC50 (Enterococcus faecium [6]) was 0.13 ng/mL (≈ 0.00027 µM), the IC50 (Thymidylate synthase [7]) was 50 µM and the IC50 (Dihydrofolate reductase) was over 50 µM.
Work on `C#CCN(Cc1cnc2nc(N)nc(O)c2n1)c1ccc(C(=O)NC(CCC(=O)O)C(=O)O)cc1` (stereo not drawn) yielded an IC50 (Lacticaseibacillus casei [3]) of over 2000 ng/mL, an IC50 (Lacticaseibacillus casei [4]; [8]) of over 2000 ng/mL and an IC50 (Thymidylate synthase [1]) of 7.5 µM. The IC50 (Enterococcus faecium [5]) was over 2000 ng/mL, the IC50 (Enterococcus faecium [6]) was 0.56 ng/mL (≈ 0.00117 µM) and the IC50 (Thymidylate synthase [7]) was 3.9 µM. For the same compound, the IC50 (Thymidylate synthase [2]) was over 3000 µM and the IC50 (Dihydrofolate reductase) was over 100 µM.
Compound `C#CCN(CC1CNc2nc(N)nc(O)c2N1)c1ccc(C(=O)NC(CCC(=O)O)C(=O)O)cc1` (stereo not drawn) has an IC50 (Lacticaseibacillus casei [3]) of over 2000 ng/mL, an IC50 (Lacticaseibacillus casei [4]; [8]) of over 2000 ng/mL and an IC50 (Enterococcus faecium [5]) of over 2000 ng/mL. It also gave an IC50 (Enterococcus faecium [6]) of 0.08 ng/mL (≈ 0.000165 µM), an IC50 (Thymidylate synthase [7]) of 32 µM and an IC50 (Dihydrofolate reductase) of over 140 µM.
With `C#CCN(Cc1ccc2[nH]c(N)nc(=O)c2c1)c1ccc(C(=O)NC(CCC(=O)O)C(=O)O)cc1` (stereo not drawn) the IC50 (Lacticaseibacillus casei [4]; [8]) was 2000 ng/mL (≈ 4.19 µM).
Work on `CN(Cc1cnc2nc(N)nc(N)c2n1)c1ccc(C(=O)N[C@@H](CCC(=O)O)C(=O)O)cc1` [METHOTREXATE] yielded an IC50 (Lacticaseibacillus casei [3]) of 0.02 ng/mL (≈ 4.4e-05 µM) and an IC50 (Lacticaseibacillus casei [4]) of over 500000 ng/mL.
For `C#CCN(Cc1cnc2nc(N)nc(O)c2n1)c1ccc(C(=O)O)cc1`, the IC50 (Lacticaseibacillus casei [3]) was over 2000 ng/mL, the IC50 (Lacticaseibacillus casei [4]; [8]) was over 2000 ng/mL and the IC50 (Enterococcus faecium [5]) was over 2000 ng/mL. For the same compound, the IC50 (Enterococcus faecium [6]) was 0.76 ng/mL (≈ 0.00217 µM), the IC50 (Thymidylate synthase [7]) was over 290 µM and the IC50 (Dihydrofolate reductase) was over 100 µM.
